Tests used:
[1] = system: subjects with moderate to severe drug-induced tardive dyskinesia (TD); assay: Open-label, single-arm long-term study in tardive dyskinesia; type: in vivo, human; details: by Week 6
Procedure: An open-label, single-arm study in which male and female subjects with moderate to severe drug-induced tardive dyskinesia (TD) was conducted to evaluate the safety and tolerability of long-term maintenance therapy with deutetrabenazine, and to evaluate the efficacy of long-term maintenance therapy of deutetrabenazine to reduce the severity of abnormal involuntary movements of TD. Study Design. […] Dose Regimen. Deutetrabenazine tablets were provided in dosage strengths of 6, 9, 12, 15, and 18 mg. During dose adjustment/titration, deutetrabenazine was supplied in weekly blister cards. During long-term treatment, deutetrabenazine will be supplied in 30-count bottles. Study drug were administered as follows. All treatment regimens were administered twice daily (BID) with meals, approximately 10 hours apart during the day. […] If a subject experienced a clinically significant AE attributable to deutetrabenazine, the Investigator determined if a dose reduction or suspension was necessary. […] During titration, the investigator, in consultation with the subject determined when an adequate level of dyskinesia control had been achieved. […] If a subject experienced a clinically significant AE attributable to deutetrabenazine, the investigator determined if a dose reduction or suspension was necessary. […]

[2] = system: cardiac repolarization (QTcF interval); assay: TQT study, six-period crossover, placebo- and positive-controlled; type: in vivo, healthy volunteers; details: for Maximum Placebo-Adjusted Change from Baseline in QTcF: fed
Procedure: Study Design. Given the known risk for tetrabenazine to increase the QT interval, a TQT study of deutetrabenazine, which included tetrabenazine as a treatment arm, was conducted in 48 healthy volunteers. This was a single-center, randomized, double-blind, placebo- and positive-controlled six-period crossover study to evaluate the effects of low-dose (12 mg) and high-dose (24 mg) deutetrabenazine on cardiac repolarization, based on placebo-corrected, time-matched changes from baseline in the QTcF interval. Assay sensitivity was established by using moxifloxacin 400 mg as the positive control.
The key outcome measure was to determine the effect of single doses of deutetrabenazine on the QTc interval.
In the table above, ΔΔQTcF is defined as the difference between the least squares mean change from baseline for the active drug and placebo. deutetrabenazine was compared with deutetrabenazine placebo (administered under fed conditions) and tetrabenazine was compared with tetrabenazine placebo (administered under fasted conditions). […] The upper limit of the 95% one-sided confidence interval is the upper limit of the 90% 2-sided confidence interval.

In the case of `[2H]C([2H])([2H])Oc1cc2c(cc1OC([2H])([2H])[2H])C1CC(=O)C(CC(C)C)CN1CC2` (stereo not drawn) [deutetrabenazine, (RR, SS)-1,3,4,6,7,11b-hexahydro-9,10-di(methoxy-d3)-3-(2-methylpropyl)-2H-benzo[a]quinolizin-2-one], the “subjects much or very much improved according to PGIC and CGIC” value [1] is reported as “over 50%”, the “Maximum Placebo-Adjusted Change from Baseline in QTcF” value ([2]; 12 mg single dose) is reported as 2.8 ms and the “Maximum Placebo-Adjusted Change from Baseline in QTcF” value ([2]; 24 mg single dose) is reported as 4.5 ms. For the same compound, the “time point at which the maximal ΔΔQTcF was observed” value ([2]; in vivo) was 8 h.

Source: US12016858B2, “Methods for the treatment of abnormal involuntary movement disorders” (AUSPEX PHARMACEUTICALS, INC., priority 2015, dated 2024)
